Results reported in US20080206198A1, “Compounds and methods for pharmico-gene therapy of epithelial sodium channel associated disorders” (priority 2003, published 2008).
“And” between values parts separate entries of the source, which are not always exact repeats. Equal entries are not always repeated. Peptide text beside a SMILES is read from it. * marks the point of attachment. Cbz = O=C(OCc1ccccc1)*

Key:
[1] = test system: primary human fibroblasts; assay type: cell-based; conditions: confluent primary human fibroblasts treated prior to rAAV infection; FACS at 96 hours post-infection
Method: Initial studies were performed in confluent primary human fibroblasts since dose titrations and toxicity could be quickly assessed. Selected agents were used to treat fibroblast monolayers prior to rAAV infection. rAAV transduction was assessed at 96 hours post-infection by FACS analysis, and the percentage of dead cells was simultaneously assessed by incorporation of propidium iodide.
These tripeptides are structurally related to chloroquine but have different lipid solubility and specificity for cysteine proteases (Seglen, 1983). These molecules decrease endosomal degradation of molecules by a mechanism different than altering pH.

mice = test: Toxicity of proteasome inhibitors in mice (intra-tracheal and IV); assay type: in vivo, mouse; conditions: 10, 100 and 1000 fold higher doses than used in polarized airway cells
Method: Long-term enhancement of rAAV transduction by proteasome inhibitor in vivo. To evaluate the potential utility of proteasome inhibitors for in vivo gene therapy, both the toxicity and efficacy of these agents for in vivo rAAV mediated gene transfer in the mouse lung was tested. To assess the toxicity of these proteasome inhibitors in mice, 10, 100, and 1000 fold higher effective doses of LLnL or Z-LLL were administered than used to induce gene transfer in polarized airway cells, using both intra-tracheal and systemic (IV) delivery. No toxicity was indicated by histologic evaluation of the lung and liver or was evidenced by the death of animals. To investigate whether these proteasome inhibitors could improve rAAV transduction in vivo, AV.LacZ (5×10^10 particles) was delivered either alone or in the presence of 400 μM Z-LLL by intranasal administration. Mouse lungs were harvested at 3, 10 and 150 days post-infection to evaluate short and long term effects. […] Targeted transgene expression was predominantly confined to the conducting airways, rather than in the parenchyma. Alveolar cells were rarely transduced. […] The range of transgene expression in distal and proximal airways was 0 to 4% and 5 to 18%, respectively.

mouse lung = test: AV.LacZ gene transfer to mouse lung with Z-LLL (X-gal morphometry); assay type: in vivo
Method: In vivo studies in mice. Animal studies were performed in accordance with the institutional guidelines of the University of Iowa. To determine the effect of the proteasome inhibitor on AAV mediated gene transfer in mouse lung, 6 week-old BALB/c mice were lightly anesthetized using a methoxyflurane chamber. AV.LacZ (5×10^10 particles) was administered alone or with 400 μM Z-LLL in a 10 μl instillation by nasal aspiration as described by Walters et al. (2000). To prevent unforeseen toxicity of DMSO solvent, the proteasome inhibitor Z-LLL was dissolved in ethanol as a 40 mM stock solution and was included in the viral inoculum at 1% final concentration. Viral infection controls in the absence of Z-LLL also contained a 1% final concentration of ethanol. […] The trachea was incubated and instilled at 10 cm of water pressure with the following solutions in order: PBS, 0.5% glutaraldehyde, 1 mM MgCl2/PBS, and finally X-gal staining reagent for an overnight incubation at room temperature. The X-gal stained mouse lungs were then post fixed in 10% neutral buffered formalin for 48 hours at room temperature and cryopreserved in serial 10%, 20% and 30% sucrose/PBS solutions. Lungs (N=3 for each condition) were embedded in OCT (optimal cutting temperature; Baxter, Warrendale, Pa.) and 15 μm serially sections were analyzed for gene transfer by calculating the percentage of positive cells in the airway epithelium. The diameter of the airway was recorded for classification (>360 μm, 260-350 μm, 160-250 μm, <150 μm) of results following morphometric analysis. Greater than 150 airway cross-sections were quantified for each experimental condition.

liver = test: rAAV transduction in liver with Z-LLL; assay type: in vivo, mouse; conditions: 1 month post-infection
Method: Recombinant AV.LacZ (5×10^10 particles) was also administered to mouse liver either as virus alone in PBS, virus in combination with 40 μM Z-LLL in PBS, or virus in combination with 20 μM LLnL in PBS. Virus was directly instilled into portal vein of the C57B6 mice. AAV-mediated LacZ transgene expression was evaluated by histology staining at 2 and 4 weeks post infection in frozen tissue sections.

Huh-7 cells = test: AAV2 FLAG-Luc transduction of Huh-7 cells; assay type: cell-based; conditions: 20 to 80 μM
Excerpt: A. To screen for agents that enhance rAAV transduction, any number of cells can be used. A range of concentrations of the agent to be tested can be determined based on, for instance desirable profiles of the agent, desirable toxicity profiles of the agent and/or concentration of the agents employed in vivo. The usefulness of the cell type chosen for the screen can be confirmed by testing compounds, e.g., proteasome inhibitors such as LLnL and ZLL which are known to increase rAAV transduction. For example, a AAV2 FLAG-Luc vector was employed to transduce HeLa, ferret fibroblasts, IB3 and Huh (liver) cells in the presence or absence of the proteasome inhibitor MG132. MG132 was confirmed to enhance AAV transduction in all cell types tested: HeLa cell transduction was enhanced about 500-fold at 80 μM, and 200-fold at 40 μM, MG132; ferret fibroblast cell transduction was enhanced about 200-fold at 20 μM, and 17-fold at 4 μM, MG132; IB3-1 cell transduction was enhanced about 30 to 70-fold at 20 to 80 μM MG132; and Huh-7 cell transduction was enhanced about 15-fold at 20 to 80 μM MG132. There was no difference in rAAV transduction efficiency in HeLa cells when either DMSO or ETOH was used as a vehicle for MG132. B. HeLa cells were selected to screen for additional agents that enhance rAAV transduction, although any cell strain or line; or primary cells, may be employed. […]

γ-ENaC gene promoter = test: Methylation-sensitive PCR of the γ-ENaC promoter CpG island in A549 cells; assay type: cell-based, human; conditions: A549 genomic DNA
Method: Analysis of γ-ENaC promoter CpG Methylation. The methylation status of a CpG island beginning at approximately −1.8 kb of the γ-ENaC promoter was analyzed using a previously described PCR method (Malik et al., 2001). Briefly, genomic DNA was isolated from A549 cells that had been treated with and without doxorubicin, and then digested overnight with Mbol, MboI/MspI, or Mbol/HpaII. PCR reactions were then performed using primers that flank the MspI/HpaII sites in this region. Primers: forward 5′-[…]-3′ (SEQ ID NO: 13); reverse 5′-[…]-3′ (SEQ ID NO: 14).

Balb/c mice = test: Safety of anthracyclines in Balb/c mice; assay type: in vivo, mouse; conditions: intranasal, 10% HDE
Excerpt: Animals were followed for seven days post dose.
Safety endpoints included morbidity and mortality, clinical observations, body weights, gross necropsy observations and histopathology. Transduction endpoints included luciferase and GFP analysis.

[2] = 400 μM Z-LLL intranasal, 150 days

Compound	rAAV transduction [1]	toxicity (histology of lung and liver, death of animals) (mice)	airway cells transduced by AV.LacZ, average (mouse lung; [2])	airways cells in the smaller bronchioles (<150 mm) expressing β-galactosidase (mouse lung; [2]) [%]	range of transgene expression in distal airways (mouse lung; [2]) [%]	range of transgene expression in proximal airways (mouse lung; [2]) [%]	transduction efficiency in larger bronchioles (>350 mm), mean % of the airway epithelium (mouse lung; [2])	transgene expression by X-gal staining (mouse lung; 3 and 10 days post infection)	increase in rAAV transduction in the liver (liver) [fold]	enhancement of Huh-7 cell transduction (Huh-7 cells)	CpG methylation of the γ-ENaC promoter (protection from HpaII digestion) (γ-ENaC gene promoter)	mortality and clinical observations (Balb/c mice; 7 days)	body weight (Balb/c mice; over the week)
CC(C)C[C@@H](C=O)NC(=O)[C@H](CC(C)C)NC(=O)[C@H](CC(C)C)NC(=O)OCc1ccccc1 [Z-LLL, N-carbobenzoxyl-L-leucinyl-L-leucinyl-L-leucinal] (Cbz-Leu-Leu-Leu-aldehyde)	significantly increased rAAV transduction	No toxicity	about 5.88%	1.37±0.41	0 to 4	5 to 18	10.36±1.63% and 10.36+/−1.63%	no detectable transgene expression	7	about 15 fold	–	–	–
COc1cccc2c1C(=O)c1c(O)c3c(c(O)c1C2=O)C[C@@](O)(C(=O)CO)C[C@@H]3O[C@H]1C[C@H](N)[C@H](O)[C@H](C)O1 [doxorubicin]	–	–	–	–	–	–	–	–	–	–	significant Dox-dependent protection from HpaII digestion	early mortality of some animals, ruffled hair coats and sick mice	lost considerable body weight
N-acetyl-L-leucinyl-L-leucinal-L-norleucinal [LLnL]	significantly increased rAAV transduction	No toxicity	–	–	–	–	–	–	–	–	–	–	–
